From patent US20260097047A1, “Small molecule inhibitors of the ribosome biogenesis factor NVL2” (Board of Regents, The University of Texas System, priority 2023, published 2026)
Read-outs that look alike come from different tables or passages of the source.

Test system: HCT116 cells
Experiment: Cell viability assay (CellTiter-Glo, 72 hours) in HCT116 human colorectal cancer cells
Format: cell-based
Method in brief: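 2,000 cells/well adhered overnight, then compound added by digital dispenser with DMSO normalized to 0.5%. Viability read after 72 h at 37 °C by ATP-based CellTiter-Glo luminescence. IC50 from ten-point curves baseline-corrected to vehicle, five-parameter asymmetric least-squares fit.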

[1] = Table 9, HCT116, 72 hours, read-out: Activity
[2] = Homo sapiens, HCT-116, read-out: IC50s (cellular activity of MM017 derivatives)
[3] = Table 7, cell viability assay, CellTiter-Glo, 72 hours, scaffold drawing 42 with R^2, R^3, X/Y, Z, read-out: Activity

Compound | IC50 [3] [nM] | also measured
CC#CCN1C(=O)c2ccccc2C(C)c2cc(NC(=O)[C@H]3C[C@H](O)C3)ccc21 (stereo partly drawn) [Table 9: —CH2CCMe; trans-3-OH-cBu; CHMe] |  | IC50 [1]: < 500 nM
CC1c2ccccc2C(=O)N(CC#CC2CC2)c2ccc(NC(=O)C=CCO)cc21 (stereo not shown) [Table 9: —CH2CC^cPr; CH═CHCH2OH; CHMe] |  | IC50 [1]: < 500 nM
COCC=CC(=O)Nc1ccc2c(c1)C(C)c1ccccc1C(=O)N2CC#CC1CC1 (stereo not shown) [Table 9: —CH2CC^cPr; CH═CHCH2OMe; CHMe] |  | IC50 [1]: < 500 nM
COCCNC(=O)Nc1ccc2c(c1)C(C)c1ccccc1C(=O)N2CC#CC1CC1 (stereo not shown) [Table 9: —CH2CC^cPr; NH(CH2)2OMe; CHMe] |  | IC50 [1]: < 500 nM
CC1c2ccccc2C(=O)N(CC#CC2CC2)c2ccc(NC(=O)C3CC(O)C3)cc21 (stereo not drawn) [Table 9: —CH2CC^cPr; cis-3-OH-cBu; CHMe] |  | IC50 [1]: < 500 nM
CC1c2ccccc2C(=O)N(CC#CC2CC2)c2ccc(NC(=O)C3COC3)cc21 (stereo not shown) [Table 9: —CH2CC^cPr; oxetan-3-yl; CHMe] |  | IC50 [1]: < 500 nM
COCC1CC(C(=O)Nc2ccc3c(c2)C(C#N)c2ccccc2C(=O)N3CC#CC2CC2)C1 (stereo not shown) [Table 9: —CH2CCcPr; 3-MeOCH2-cBu; CHCN] |  | IC50 [1]: < 500 nM
COCC1CC(C(=O)Nc2ccc3c(c2)C(C)(O)c2ccccc2C(=O)N3CC#CC2CC2)C1 (stereo not shown) [Table 9: —CH2CCcPr; 3-MeOCH2-cBu; CMeOH] |  | IC50 [1]: < 500 nM
CO[C@H]1C[C@@H](C(=O)Nc2ccc3c(c2)C(C)(O)c2ccccc2C(=O)N3CC#CC2CC2)C1 (stereo partly drawn) [Table 9: —CH2CCcPr; cis-3-MeOcBu; CMeOH] |  | IC50 [1]: < 500 nM
COC1CC(C(=O)Nc2ccc3c(c2)C(C#N)c2ccccc2C(=O)N3CC#CC2CC2)C1 (stereo not drawn) [Table 9: —CH2CC°Pr; trans-3-MeOcBu; CHCN] |  | IC50 [1]: < 500 nM
CO[C@H]1C[C@@H](C(=O)Nc2ccc3c(c2)C(C#N)c2ccccc2C(=O)N3CC#CC2CC2)C1 (stereo partly drawn) [Table 9: —CH2CCºPr; cis-3-MeOcBu; CHCN] |  | IC50 [1]: < 500 nM
COCCN1C(=O)c2ccccc2Sc2cc(NC(=O)c3ccc(OC(F)(F)F)cc3)ccc21 [compound 4] |  | IC50 [2]: 2100 nM
COCCN1C(=O)c2ccccc2Sc2cc(NC(=O)c3ccccc3OC)ccc21 [compound 5] |  | IC50 [2]: 13000 nM
C#CCOCCN1C(=O)c2ccccc2Sc2cc(NC(=O)c3cccc(CCC#N)c3)ccc21 [—(CH2)2OCH2CCH; 3-(2′-CNEt)Ph; CH/CH; S] | < 500 | 
C#CCOCCN1C(=O)c2ccccc2Sc2cc(NC(=O)c3ccc(OC)c(F)c3)ccc21 [—(CH2)2OCH2CCH; 3-F,4-MeOPh; CH/CH; S] | 1000 to 5000 | 
C#CCOCCN1C(=O)c2ccccc2Cc2cc(NC(=O)c3ccc(OC)cc3)ccc21 [—(CH2)2OCH2CCH; 4-MeOPh; CH/CH; CH2] | < 500 | 
C#CCOCCN1C(=O)c2ccccc2Sc2cc(NC(=O)c3ccc(OC)cc3)ccc21 [—(CH2)2OCH2CCH; 4-MeOPh; CH/CH; S] | < 500 | 
C#CCOCCN1C(=O)c2ccccc2Sc2cc(NC(=O)c3ccc(N=[N+]=[N-])cc3)ccc21 [—(CH2)2OCH2CCH; 4-N3Ph; CH/CH; S] | < 500 | 
C#CCOCCN1C(=O)c2ccccc2Sc2cc(NC(=O)c3ccoc3)ccc21 [—(CH2)2OCH2CCH; furan-3-yl; CH/CH; S] | < 500 | 
O=C(Nc1ccc2c(c1)Sc1ccccc1C(=O)N2CCO)c1ccoc1 [—(CH2)2OH; furan-3-yl; CH/CH; S] | 1000 to 5000 | 
COCCN1C(=O)c2ccccc2Sc2cc(NC(=O)c3cc(C)oc3C)ccc21 [—(CH2)2OMe; 2,5-Me2-furan-3-yl; CH/CH; S] | 1000 to 5000 | 
C#Cc1cc(C(=O)Nc2ccc3c(c2)Sc2ccccc2C(=O)N3CCOC)ccn1 [—(CH2)2OMe; 2-(HCC)pyrid-4-yl; CH/CH; S] | 1000 to 5000 | 
COCCN1C(=O)c2ccccc2Sc2cc(NC(=O)c3ccc(OC)cc3F)ccc21 [—(CH2)2OMe; 2-F,4-MeOPh; CH/CH; S] | 500 to 1000 | 

Compound | IC50 [3] [nM] | also measured
COCCN1C(=O)c2ccccc2Sc2cc(NC(=O)c3ccc(OC)cc3C)ccc21 [—(CH2)2OMe; 2-Me,4-MeOPh; CH/CH; S] | 1000 to 5000 | 
COCCN1C(=O)c2ccccc2Sc2cc(NC(=O)c3ccoc3C)ccc21 [—(CH2)2OMe; 2-Me-furan-3-yl; CH/CH; S] | 500 to 1000 | 
COCCN1C(=O)c2ccccc2Sc2cc(NC(=O)c3ccccc3OC)ccc21 [—(CH2)2OMe; 2-MeOPh; CH/CH; S] | < 500 | 
COCCN1C(=O)c2ccccc2Sc2cc(NC(=O)c3ccc4ccccc4c3)ccc21 [—(CH2)2OMe; 2-naphtyl; CH/CH; S] | 1000 to 5000 | 
COCCN1C(=O)c2ccccc2Sc2cc(NC(=O)c3ccc(Cl)c(Cl)c3)ccc21 [—(CH2)2OMe; 3,4-Cl2Ph; CH/CH; S] | 1000 to 5000 | 
COCCN1C(=O)c2ccccc2Sc2cc(NC(=O)c3ccc(F)c(F)c3)ccc21 [—(CH2)2OMe; 3,4-F2Ph; CH/CH; S] | 1000 to 5000 | 
COCCN1C(=O)c2ccccc2Sc2cc(NC(=O)c3cc(F)c(OC)c(F)c3)ccc21 [—(CH2)2OMe; 3,5-F2,4-MeOPh; CH/CH; S] | 500 to 1000 | 
COCCN1C(=O)c2ccccc2Sc2cc(NC(=O)c3cccc(CCC#N)c3)ccc21 [—(CH2)2OMe; 3-(2′-CNEt)Ph; CH/CH; S] | < 500 | 
COCCN1C(=O)c2ccccc2Sc2cc(NC(=O)c3cccc(C(F)(F)F)c3)ccc21 [—(CH2)2OMe; 3-CF3Ph; CH/CH; S] | 1000 to 5000 | 
COCCN1C(=O)c2ccccc2Sc2cc(NC(=O)c3cccc(C#N)c3)ccc21 [—(CH2)2OMe; 3-CNPh; CH/CH; S] | 1000 to 5000 | 
COCCN1C(=O)c2ccccc2Sc2cc(NC(=O)c3ccc(F)c(Cl)c3)ccc21 [—(CH2)2OMe; 3-Cl,4-FPh; CH/CH; S] | 1000 to 5000 | 
COCCN1C(=O)c2ccccc2Sc2cc(NC(=O)c3ccc(NC=O)c(Cl)c3)ccc21 [—(CH2)2OMe; 3-Cl,4-HC(O)NHPh; CH/CH; S] | 1000 to 5000 | 
COCCN1C(=O)c2ccccc2Sc2cc(NC(=O)c3cccc(Cl)c3)ccc21 [—(CH2)2OMe; 3-ClPh; CH/CH; S] | 1000 to 5000 | 
COCCN1C(=O)c2ccccc2Sc2cc(NC(=O)c3ccc(OC(F)F)c(F)c3)ccc21 [—(CH2)2OMe; 3-F,4-F2HCOPh; CH/CH; S] | 1000 to 5000 | 
COCCN1C(=O)c2ccccc2Sc2cc(NC(=O)c3ccc(OC(F)(F)F)c(F)c3)ccc21 [—(CH2)2OMe; 3-F,4-F3COPh; CH/CH; S] | 1000 to 5000 | 
COCCN1C(=O)c2ccccc2Sc2cc(NC(=O)c3ccc(OC)c(F)c3)ccc21 [—(CH2)2OMe; 3-F,4MeOPh; CH/CH; S] | 500 to 1000 | 
COCCN1C(=O)c2ccccc2Sc2cc(NC(=O)c3cccc(OCF)c3)ccc21 [—(CH2)2OMe; 3-FH2COPh; CH/CH; S] | < 500 | 
COCCN1C(=O)c2ccccc2Sc2cc(NC(=O)c3cccc(F)c3)ccc21 [—(CH2)2OMe; 3-FPh; CH/CH; S] | 1000 to 5000 | 
COCCN1C(=O)c2ccccc2Sc2cc(NC(=O)c3cccc(C(N)=O)c3)ccc21 [—(CH2)2OMe; 3-H2NC(O)Ph; CH/CH; S] | 1000 to 5000 | 
COCCN1C(=O)c2ccccc2Sc2cc(NC(=O)c3cccc(C(=O)N(C)C)c3)ccc21 [—(CH2)2OMe; 3-Me2NC(O)Ph; CH/CH; S] | 500 to 1000 | 
CNC(=O)c1cccc(C(=O)Nc2ccc3c(c2)Sc2ccccc2C(=O)N3CCOC)c1 [—(CH2)2OMe; 3-MeNHC(O)Ph; CH/CH; S] | 1000 to 5000 | 
COCCN1C(=O)c2ccccc2Sc2cc(NC(=O)c3ccc(Cl)c(OC)c3)ccc21 [—(CH2)2OMe; 3-MeO,4-ClPh; CH/CH; S] | 500 to 1000 | 
COCCN1C(=O)c2ccccc2Sc2cc(NC(=O)c3ccc(F)c(OC)c3)ccc21 [—(CH2)2OMe; 3-MeO,4-FPh; CH/CH; S] | 500 to 1000 | 
